Test results as given in patent publication US12018006B2, “Method of producing EPD and analogues thereof” (priority 2017, dated 2024).

Experiments:
[1] = tested on: ovarian cancer cell line JC; assay: In vitro cytotoxic activity, Presto blue assay, ovarian cancer cell line JC; format: cell-based
Protocol: (§1) The cytotoxic activity of the compounds was tested using methods as described earlier (van Haaften et al. Journal of Experimental & Clinical Cancer Research (2015) 34:38). In short, 3×10^4 cells of the ovarian cancer cell line JC (Van Haaften-Day et al. Cancer Res. 1983) were seeded in 24-well plates (Costar, Denmark) in DMEM/F12 medium (Invitrogen) containing 10% of Fetal Calf Serum (FCS, Sigma), 50 U penicillin and 50 μg/mL streptomycin (Invitrogen). The cells were incubated at 37° C. in a 9% CO2 incubator with 95% humidity. After 24 hours, solutions 1-6 were added to the cell cultures.
(§2) Cytotoxic activity of each of the compounds was determined after 72 hours in a standard Presto blue assay (see Van Haaften et al. J Exp Clin Cancer Res. 2015 34(1): 38 for details on the method). Each compound's solution as described above was diluted 100, 200 and 400 times respectively.

[2] = tested on: ovarian cancer cell line A2780AD; assay: Growth of multi-drug resistant ovarian cancer cell line A2780AD after 72 hrs; format: cell-based, human; conditions: for growth of the cell line, % of the control value: 72 hrs, control (medium) = 100%
Protocol: as §1, §2
Also the effect of synthetic EPD was tested on an ovarian cancer cell line A2780AD, ATCC using methods as described above, whereby the experiment was ended after 72 hrs. Cell line A2780AD, a multi-drug resistant human ovarian cancer cell line, is resistant to paclitaxel. It was shown that at 1, 1.5 and 2 μg/mL of synthetic EPD, the growth of the cell line after 72 hrs was reduced to 40%, 13% and 8% of the control value (100%, medium), respectively.

[3] = tested on: cervical cancer cell line Siha; assay: Effect of synthetic EPD on growth of cervical cancer cell line Siha; format: cell-based; conditions: for cancer cell growth reduced by: Siha, FIG. 1B
Protocol: (§3) Further, the effect of synthetic EPD (1-3 μg/mL) was studied on normal fibroblasts and compared with the effect on a cervical cancer cell line Siha (FIG. 1B). […] At a concentration of 1 μg/mL, fibroblast growth was unaffected, whereas cancer cell growth was reduced by almost 20%. At a concentration of […], fibroblast growth was reduced by almost 20%, whereas cancer cell growth was reduced by more than 80%, and at a concentration of 3 μg/mL, fibroblast growth was reduced by 35%, whereas cancer cell growth was reduced by almost 97%.

normal fibroblasts = assay: Effect of synthetic EPD on growth of normal fibroblasts; format: cell-based; conditions: FIG. 1B
Protocol: as §3

ovarian cancer = conditions: cited from earlier work
normal cells = conditions: cited from earlier work

C=C1C(=O)O[C@H]2CC3=CCCC[C@]3(C)C[C@@H]12 (relative stereo) [racemic mixture of the (mono) methyl analogue, (rel3aS,4aR,9aS)-4α-methyl-3-methylene-3a,4,4a,5,6,7,9,9a-octahydronaphtho[2,3-b]furan-2(3H)-one]
cytotoxic activity ([1]; JC cells, 72 hours, solutions diluted 100, 200 and 400 times, FIG. 1A, compared with natural EPD): demonstrates cytotoxic activity

C=C1C(=O)O[C@@H]2CC3=CCC[C@H](C)[C@@]3(C)C[C@H]12 (single isomer, unassigned) [synthetic EPD, eremophila-1(10)-11(13)-dien-12,8β-olide]
growth of the cell line, % of the control value ([2]; 1 μg/mL): 40%
growth of the cell line, % of the control value ([2]; 1.5 μg/mL): 13%
growth of the cell line, % of the control value ([2]; 2 μg/mL): 8%
dose-dependent effect on cancer cells compared with fibroblasts ([3]; Siha vs normal fibroblasts, 1-3 μg/mL): much higher on cancer cells than on fibroblasts
cancer cell growth reduced by ([3]; synthetic EPD 1 μg/mL): ~20%
cancer cell growth reduced by ([3]; synthetic EPD 3 μg/mL): ~97%
cancer cell growth reduced by ([3]; synthetic EPD 2 g/mL): more than 80%
fibroblast growth (normal fibroblasts; synthetic EPD 1 μg/mL): unaffected
fibroblast growth reduced by (normal fibroblasts; synthetic EPD 2 μg/mL): ~20%
fibroblast growth reduced by (normal fibroblasts; synthetic EPD 3 μg/mL): 35%
inhibition of JC cells compared with paclitaxel ([1]; JC as control cell line, FIG. 1C): at least as effective as paclitaxel

C=C1C(=O)O[C@@H]2CC3=CCC[C@H](C)[C@@]3(C)C[C@H]12 [EPD, eremophila-1(10)-11(13)-dien-12,8β-olide]
cytotoxic effects towards ovarian cancer (ovarian cancer): potent cytotoxic effects
cytotoxic effects towards normal cells (normal cells): not towards normal cells

CC(=O)O[C@H]1C(=O)[C@@]2(C)[C@H]([C@H](OC(=O)c3ccccc3)[C@]3(O)C[C@H](OC(=O)[C@H](O)[C@@H](NC(=O)c4ccccc4)c4ccccc4)C(C)=C1C3(C)C)[C@]1(OC(C)=O)CO[C@@H]1C[C@@H]2O [paclitaxel, reference compound]
resistance of cell line A2780AD to the drug ([2]; 0.375 μg/mL): full resistance
